In patent publication US20150218638A1, “METHODS FOR ASSESSMENT OF PEPTIDE-SPECIFIC IMMUNITY” (priority 2012, published 2015):

Test system: heparinized whole blood
Assay: Ex vivo induction of immune-function-related mRNA in heparinized whole blood, real time PCR
Format: cell-based
Conditions: 37° C., 4 hours, vs PBS

## leucoagglutinin [PHA-L]
  CCL4 mRNA induction: induced
  CTLA4 mRNA induction: induced
  CXCL3 mRNA induction: induced
  CXCL10 mRNA induction: induced
  GMCSF mRNA induction: induced
  IFNG mRNA induction: induced
  IL4 mRNA induction: induced
  IL10 mRNA induction: induced
  TNFSF2 mRNA induction: induced
  beta actin (ACTB) mRNA induction (control housekeeping gene): not induced
